Where a name gives a salt, the structure may show the parent alone.
Each compound was assayed against HPK1 (Homo sapiens (Human), UniProt Q92918, S171E/T165E) (assay: HPK1-FL HTRF Enzymatic Assay (HTRF)). Settings: HPK full length T165E S171E 0.125 nM, ATP 1 mM, Biotin-SLP76 100 nM, read-out: HPK1 Ki (nM), H = HTRF.
Chain of HPK1 (Q92918 whole entry T165E/S171E): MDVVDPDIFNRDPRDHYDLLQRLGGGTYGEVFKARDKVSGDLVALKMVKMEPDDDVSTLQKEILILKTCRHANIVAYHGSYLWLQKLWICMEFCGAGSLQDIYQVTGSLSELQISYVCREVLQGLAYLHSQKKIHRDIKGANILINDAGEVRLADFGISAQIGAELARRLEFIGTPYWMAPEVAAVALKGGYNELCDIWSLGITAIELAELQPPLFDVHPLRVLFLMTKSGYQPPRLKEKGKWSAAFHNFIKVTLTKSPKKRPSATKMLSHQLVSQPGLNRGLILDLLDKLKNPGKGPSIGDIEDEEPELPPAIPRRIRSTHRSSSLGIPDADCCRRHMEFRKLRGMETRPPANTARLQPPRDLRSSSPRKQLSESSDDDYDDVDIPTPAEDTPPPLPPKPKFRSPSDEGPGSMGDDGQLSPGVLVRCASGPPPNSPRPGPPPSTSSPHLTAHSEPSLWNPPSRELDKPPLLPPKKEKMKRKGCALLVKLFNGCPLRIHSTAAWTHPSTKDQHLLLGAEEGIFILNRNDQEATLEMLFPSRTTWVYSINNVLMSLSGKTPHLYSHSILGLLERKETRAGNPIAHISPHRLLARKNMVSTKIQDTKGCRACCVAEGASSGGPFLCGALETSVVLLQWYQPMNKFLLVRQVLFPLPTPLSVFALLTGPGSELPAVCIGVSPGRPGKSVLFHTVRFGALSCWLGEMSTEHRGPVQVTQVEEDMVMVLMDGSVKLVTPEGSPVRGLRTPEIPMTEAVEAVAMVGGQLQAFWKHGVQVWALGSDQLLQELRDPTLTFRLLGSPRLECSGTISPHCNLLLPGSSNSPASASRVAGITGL
Format: biochemical
Procedure: Exemplary compounds of Formula (I) were tested to assess compound inhibition of HPK-1. The Ki for each exemplary compound was determined
Example B1: HPK1-FL HTRF Enzymatic Assay (“HTRF”)
HPK-FL enzyme phosphorylates Biotin-SLP-76 substrate in the presence of ATP at 1 mM and varying concentrations of test compound. Product is detected by FRET using Eu-anti-pSLP76 Ab and SA-XL665. Also see www.cisbio.com/HTRF for additional HTRF technology information.
• Echo555 compound dispenser • Agilent Bravo • Perkin Elmer Envision Final Assay Conditions:
Materials: • Assay plate: White ProxiPlate 384 F (PerkinElmer cat #6008289) • Kinase: HPK full length double mutant • Substrate: Biotin-SLP76 • ATP: 100 mM ATP • BSG: 2% BSG • DMSO: DMSO (Sigma cat #34869-100ML) • Reaction Buffer: H2O/50 mM HEPES, pH 7.5/10 mM MgCl2/2 mM TCEP/0.01% Brij-35/0.01% BSG • Detection mix:Eu-anti-pSLP76/SA-XL665 (Cisbio, #610SAXAC) Assay Procedure Ki determination:
To a 384 well Proxiplate with 80 nL compound or DMSO spotted on was added 4 μl/well kinase mix. The mixture was preincubated for 30 minutes and then 4 μl/well substrate mix was added. The solution was incubated for 60 min and then 4 μl/well detection mix was added. The solution was incubated for another 60 min. The plates were then loaded onto a Perkin Elmer Envision and the TR-FRET signal was measured at 615 and 665 nm. A ratio of […] was used to calculate the % activity at each concentration of compound.
`Cc1ccncc1-c1cc2cc(Nc3cc4n(n3)CC(=O)N(C)CC4)ncc2c(Cl)c1F` [Compound 110, 2-[[8-Chloro-7-fluoro-6-(4-methylpyridin-3-yl)isoquinolin-3-yl]amino]-6-methyl-4H,5H,6H,7H,8H-pyrazolo[1,5-d][1,4]diazepin-7-one] gave a Ki of 4.6 nM.
Compound `Cc1c(-c2cc3cc(Nc4cc5n(n4)CC(=O)NCC5)ncc3cc2F)cnc2c1NCCC2O` (racemic) [Compound 201, (+/-)-2-((7-fluoro-6-(8-hydroxy-4-methyl-5,6,7,8-tetrahydro-1,5-naphthyridin-3-yl)isoquinolin-3-yl)amino)-5,6-dihydro-4H-pyrazolo[1,5-d][1,4]diazepin-7(8H)-one formate salt] has a Ki of 0.11 nM.
With `Cc1c(N)cncc1-c1cc(F)c2cnc(Nc3cc4n(n3)Cc3nccn3CC4)cc2c1` [Compound 168, N-(6-(5-amino-4-methylpyridin-3-yl)-8-fluoroisoquinolin-3-yl)-5,6-dihydro-1I1H-imidazo[1,2-a]pyrazolo[1,5-d][1,4]diazepin-8-amine] the Ki was 0.028 nM.
In the case of `Cc1c(N)cncc1-c1ccc2cnc(Nc3cc4n(n3)CC(=O)N(C(C)C)CC4)cc2c1Cl` [Compound 152, 2-((6-(5-amino-4-methylpyridin-3-yl)-5-chloroisoquinolin-3-yl)amino)-6-isopropyl-5,6-dihydro-4H-pyrazolo[1,5-d][1,4]diazepin-7(8H)-one], the Ki is reported as 0.028 nM.
For `Cc1c(-c2cc3cc(Nc4cc5n(n4)CC(=O)N(C(C)CO)CC5)ncc3cc2F)cnc2c1NCCO2` (single isomer, unassigned) [Compound 148b], the Ki was 0.013 nM.
`Cc1c(N)cncc1-c1cc2cc(Nc3cc4n(n3)CC(=O)N(C)C(C)(C)C4)ncc2cc1F` [Compound 120, 2-((6-(5-amino-4-methylpyridin-3-yl)-7-fluoroisoquinolin-3-yl)amino)-5,5,6-trimethyl-5,6-dihydro-4H-pyrazolo[1,5-d][1,4]diazepin-7(8H)-one] gave a Ki of 0.04 nM.
For `Cc1c(-c2cc3cc(Nc4cc5n(n4)Cc4nncn4CC5)ncc3cc2F)cnc2c1NCCO2` [Compound 151, N-(7-fluoro-6-(8-methyl-2,3-dihydro-1H-pyrido[2,3-b][1,4]oxazin-7-yl)isoquinolin-3-yl)-5,6-dihydro-11H-pyrazolo[1,5-d][1,2,4]triazolo[4,3-a][1,4]diazepin-8-amine], the Ki was 0.013 nM.
`Cc1c(-c2cc3cc(Nc4cc5n(n4)CC(=O)N(C)CC54CC4)ncc3cc2F)cnc2c1NCC[C@@H]2O` (single isomer, unassigned) [Compound 205b] was tested, and the Ki was 0.013 nM.
`Cc1c(NC2CNC2)cncc1-c1cc2cc(Nc3cc4n(n3)Cc3nccn3CC4)ncc2cc1F` [Compound 179, N-(6-(5-(azetidin-3-ylamino)-4-methylpyridin-3-yl)-7-fluoroisoquinolin-3-yl)-5,6-dihydro-11H-imidazo[1,2-a]pyrazolo[1,5-d][1,4]diazepin-8-amine] showed a Ki of 0.5 nM.
Work on `Cc1c(CN)cncc1-c1cc2cc(Nc3cc4n(n3)CC(=O)N(C)CC4)ncc2cc1F` [Compound 211, 2-((6-(5-(aminomethyl)-4-methylpyridin-3-yl)-7-fluoroisoquinolin-3-yl)amino)-6-methyl-5,6-dihydro-4H-pyrazolo[1,5-d][1,4]diazepin-7(8H)-one] yielded a Ki of 19 nM.
With `Cc1c(N)cncc1-c1cc2cc(Nc3cc4n(n3)CC(=O)N(C(C)C)CC4)ncc2c(C)c1F` [Compound 121, 2-((6-(5-amino-4-methylpyridin-3-yl)-7-fluoro-8-methylisoquinolin-3-yl)amino)-6-isopropyl-5,6-dihydro-4H-pyrazolo[1,5-d][1,4]diazepin-7(8H)-one] the Ki was 0.08 nM.
In the case of `Cc1c(-c2cc3cc(Nc4cc5n(n4)CC(=O)N(C)CC5)ncc3cc2F)cnnc1N` [Compound 194, 2-((6-(6-amino-5-methylpyridazin-4-yl)-7-fluoroisoquinolin-3-yl)amino)-6-methyl-5,6-dihydro-4H-pyrazolo[1,5-d][1,4]diazepin-7(8H)-one], the Ki is reported as 0.83 nM.
